Experimental findings from ChEMBL document CHEMBL5532682, “Recent advances of tryptanthrin and its derivatives as potential anticancer agents” (RSC Med Chem, 2024) are described below.

SMILES strings stand for the structures.

For series [1], the system named is MCF7. Put plainly: Antiproliferative activity against human MCF7 cells. It counts as functional, cell-based.
For series [2], the system named is NCI/ADR-RES. Nature of the series: Antiproliferative activity against human MCF7ADR cells. The class given is functional, cell-based.
Series [3] deals with Hep 3B2. Put plainly: Antiproliferative activity against human Hep3B cells measured after 48 hrs by MTT assay. The class given is functional, cell-based. (Tetrazolium assays rely on reduction of a dye to a coloured formazan, in cell work by metabolically active cells.)
Series [4] deals with MCF7. Put plainly: Cytotoxicity against human MCF7 cells measured after 3 days by MTT assay. It counts as functional, cell-based. The conditions noted are these: MCF7, 72 h.
For series [5], the system named is A498. Nature of the series: Cytotoxicity against human A498 cells measured after 3 days by MTT assay. The class given is functional, cell-based. The conditions noted are these: A498, 72 h.
In series [6] the test system is SK-OV-3. Nature of the series: Cytotoxicity against human SK-OV-3 cells measured after 3 days by MTT assay. The class given is functional, cell-based. The conditions noted are these: SK-OV-3, 72 h.
Another series deals with T-24. Put plainly: Antiproliferative activity against human T24 cells assessed as inhibition of cell growth. The class given is functional, cell-based.
Series [7] concerns A549. Put plainly: Antiproliferative activity against human A549 cells assessed as cell growth inhibition. The class given is functional, cell-based.
Series [8] deals with SK-OV-3. Put plainly: Antiproliferative activity against human SK-OV-3 cells assessed as inhibition of cell growth. The class given is functional, cell-based.
In series [9] the test system is HeLa. Put plainly: Antiproliferative activity against human HeLa cells assessed as cell growth inhibition. The class given is functional, cell-based.
The subject of series [10] is HepG2. Put plainly: Antiproliferative activity against human HepG2 cells assessed as inhibition of cell growth. It counts as functional, cell-based.
Series [11] can be described thus: Antiproliferative activity against human HL7702 cells assessed as inhibition of cell growth. It counts as toxicity, cell-based. The conditions noted are these: HL7702 (L02) cells.
Series [12] has as its system A549. Nature of the series: Antiproliferative activity against human A549 cells assessed as inhibition of cell viability. It counts as functional, cell-based.
The subject of a further series is A549/CDDP. Nature of the series: Antiproliferative activity against human A549/DDP cells assessed as inhibition of cell viability. It counts as functional, cell-based.
Series [13] can be described thus: Antiproliferative activity against human HL7702 cells assessed as inhibition of cell viability. The class given is toxicity, cell-based. The conditions noted are these: HL7702 (L02) cells.
Series [14] relates to NCI/ADR-RES. Put plainly: Growth inhibition of human MCF7ADR cells assessed as reduction in cell viability. The class given is functional.
A further series deals with U-251. Put plainly: Growth inhibition of human U-251 cells assessed as reduction in cell viability. The class given is functional.
A further series deals with SW-620. Nature of the series: Growth inhibition of human SW620 cells assessed as reduction in cell viability. The class given is functional.
The subject of a further series is NCI-H522. Nature of the series: Growth inhibition of human NCI-H522 cells assessed as reduction in cell viability. It counts as functional.
A further series has as its system M14. Put plainly: Growth inhibition of human M14 cells assessed as reduction in cell viability. It counts as functional.
Series [15] relates to SK-OV-3. Nature of the series: Growth inhibition of human SK-OV-3 cells assessed as reduction in cell viability. It counts as functional.
Another series deals with DU-145. Nature of the series: Growth inhibition of human DU-145 cells assessed as reduction in cell viability. It counts as functional.
Series [16] relates to A498. Put plainly: Growth inhibition of human A498 cells assessed as reduction in cell viability. The class given is functional.
For series [17], the system named is HeLa. Nature of the series: Antiproliferative activity against human HeLa cells. It counts as functional, cell-based.
In the next series the test system is B16-F10. Put plainly: Antiproliferative activity against mouse B16-F10 cells. It counts as functional, cell-based.
A short description of series [18]: Antiproliferative activity against human LX-2 cells. It counts as toxicity, cell-based.
Series [19] deals with A549. Nature of the series: Antiproliferative activity against human A549 cells incubated by 48 hrs by MTT assay. The class given is functional, cell-based. Particulars: A549, 48 h.
The subject of series [20] is K562. Put plainly: Antiproliferative activity against human K562 cells incubated by 48 hrs by MTT assay. The class given is functional, cell-based. The conditions noted are these: K562, 48 h.
For series [21], the system named is HepG2. Nature of the series: Antiproliferative activity against human HepG2 cells incubated by 48 hrs by MTT assay. The class given is functional, cell-based. The conditions noted are these: HepG2, 48 h.
Another series concerns PC-3. Put plainly: Antiproliferative activity against human PC-3 cells incubated by 48 hrs by MTT assay. It counts as functional, cell-based. Particulars: PC-3, 48 h.
Series [22] concerns Hep 3B2. Nature of the series: Anticancer activity against human Hep3B cells measured after 48 hrs. It counts as functional, cell-based.
Series [23] has as its system K562. Nature of the series: Antiproliferative activity against human K562 cells incubated for 48 hrs. It counts as functional, cell-based. The conditions noted are these: K562, 48 h.
Series [24] has as its system HeLa. Nature of the series: Antiproliferative activity against human HeLa cells incubated for 48 hrs. It counts as functional, cell-based.
The subject of a further series is CT26. Put plainly: Antiproliferative activity against mouse CT26 cells incubated for 48 hrs. The class given is functional, cell-based. The conditions noted are these: CT26, 48 h.
Series [25] concerns MCF7. Put plainly: Antiproliferative activity against human MCF7 cells assessed as inhibition of cell growth. The class given is functional, cell-based.
The subject of series [26] is A549. Nature of the series: Antiproliferative activity against human A549 cells assessed as inhibition of cell growth. The class given is functional, cell-based.
The subject of series [27] is HeLa. Put plainly: Antiproliferative activity against human HeLa cells assessed as inhibition of cell growth. The class given is functional, cell-based.
A short description of series [28]: Cytotoxicity against human HEK293 cells assessed as inhibition of cell growth. The class given is toxicity, cell-based.

In the case of `O=c1c2ccccc2nc2n1-c1ccccc1/C2=N\O`, the values for the IC50 in the series on MCF7 [1] and with NCI/ADR-RES [2] were 82.1 µM and 75.3 µM, respectively.

As to `O=C1c2cc(I)ccc2-n2c1nc1ccccc1c2=O`, the IC50 in the series on Hep 3B2 [3] was 2.4 µM; with MCF7 [4] it was 1.5 µM; with A498 [5] it was 1.86 µM; in the series with SK-OV-3 [6] it was 0.65 µM; with T-24, 85.2 µM; with A549 [7] it was over 150 µM. The IC50 in the series on SK-OV-3 [8] was 79.1 µM; in the series with HeLa [9], over 150 µM; with HepG2 [10] it was 88.6 µM; in series [11], 94.1 µM.

Regarding `c1ccc(CNCc2ccccn2)nc1`, the IC50 (in the series on A549 [12]; in the series on A549/CDDP; in series [13]) was over 100 µM in each case.

Consider `O=C1c2cc3ccccc3cc2-n2c1nc1ccccc1c2=O`, for which the GI50 in the series on NCI/ADR-RES [14] was 15 µM; in the series with U-251, 15 µM; in the series with SW-620 it was 8 µM; with NCI-H522, 50 µM; in the series with M14 it was 40 µM; in the series with SK-OV-3 [15], 30 µM. Further, the 50% growth inhibitory concentration (GI50) was 50 µM in the series on DU-145 and 60 µM with A498 [16].

For `N/N=C1/c2cc(F)ccc2-n2c1nc1ccccc1c2=O`, the IC50 in the series on MCF7 [4] worked out at 1.4 µM; in the series with A498 [5], 1.26 µM; in the series with SK-OV-3 [6] it was 8.51 µM.

Turning to `O=C1c2cc([N+](=O)[O-])ccc2-n2c1nc1ccccc1c2=O`, the IC50 in the series on HeLa [17] is 0.34 µM; in the series with B16-F10, 0.49 µM; in series [18], 0.83 µM; with A549 [19], 6.88 µM; in the series with K562 [20], 8.05 µM; in the series on HepG2 [21], 7.89 µM. For the same molecule, the IC50 amounted to 11.8 µM with PC-3 and 1.4 µM in the series with Hep 3B2 [22]. The GI50 was 0.7 µM in the series with NCI/ADR-RES [14]; over 100 µM in the series with U-251; 4 µM in the series with SW-620; 0.7 µM in the series on NCI-H522; 0.8 µM in the series on M14; 5 µM in the series on SK-OV-3 [15]. In addition, the GI50 with DU-145 is 0.15 µM; with A498 [16], 3 µM.

In the case of `C[C@]1(O)c2ccccc2-n2c1nc1ccccc1c2=O`, the concentration for 50% growth inhibition (GI50) with NCI/ADR-RES [14], in the series on U-251, in the series with SW-620, in the series with NCI-H522, with M14 and in the series with SK-OV-3 [15] was over 100 µM each time. Also, the GI50 in the series with DU-145 and with A498 [16] was over 100 µM throughout.

As to `C=C[C@@H]1[C@@]2(c3ccccc3)[C@H]3CCCN3[C@@]3(c4ccccc4-n4c3nc3ccccc3c4=O)[C@@]12c1ccccc1`, the results for the half-maximal inhibitory concentration (IC50) in the series on K562 [23], with HeLa [24] and with CT26 were over 50 µM, over 50 µM and 10 µM, respectively.

Regarding `O=C1C2C=CC=CC2=NC2/C(=N\Nc3nc(-c4ccc(Br)cc4)cs3)c3ccccc3N12` (stereo unspecified), the IC50 was 12.7 µM in the series with MCF7 [25], 16.9 µM in the series on A549 [26], 19.3 µM with HeLa [27] and 73.3 µM in series [28].

For `O=C1C2C=CC=CC2=NC2/C(=N\Nc3nc(-c4ccc(F)cc4)cs3)c3ccccc3N12` (stereo unspecified), the IC50 in the series with MCF7 [25] is 10.2 µM; in the series on A549 [26], 6.67 µM; in the series with HeLa [27] it was 9.54 µM; in series [28] it was 86.1 µM.

Broadly, the IC50 is the concentration that inhibits the measured activity by half. The term GI50 denotes the concentration at which growth is held to half of that of the control.
